Values of other authors in publication PMC10799843 (Molecular pharmaceutics, 2023).

System: denatured collagen
Details: control scrambled peptide

Collagen binding affinity: lacking in collagen binding affinity
Substance: Cy5.5-KGGG-OfGGOfGfGfOfOGOfGOOfGGOOffG [^SCHP]
